Active and inactive are the calls of the source. No cut-off for these calls is given here.
Key:
[1] = Antioxidant activity assessed as peroxide reduction rate at 80 uM using H2O2/GSH as substrate/hydrogen-donar by GPx-based assay; assay type: physicochemical
[2] = Antioxidant activity assessed as peroxide reduction rate at 80 uM using H2O2/4-aminoantipyrine as substrate/hydrogen-donar; assay type: physicochemical
[3] = Antioxidant activity assessed as electrochemical reduction using Au electrode by cyclic voltammetric analysis; assay type: physicochemical
[4] = Antioxidant activity assessed as oxidation potential using glass carbon electrode by cyclic voltammetric analysis; assay type: physicochemical
[5] = Antioxidant activity assessed as peroxide reduction rate at 80 uM using H2O2/pyrogallol as substrate/hydrogen-donar by ABTS-based assay; assay type: physicochemical
[6] = Antioxidant activity assessed as peroxide reduction rate at 80 uM using H2O2/guaiacol as substrate/hydrogen-donar by ABTS-based assay; assay type: physicochemical
[7] = Antioxidant activity assessed as electrochemical reduction using glass carbon electrode by cyclic voltammetric analysis; assay type: physicochemical
[8] = Antioxidant activity assessed as oxidation potential using Au electrode by cyclic voltammetric analysis; assay type: physicochemical
[9] = Antioxidant activity assessed as peroxide reduction rate at 80 uM using H2O2/pyrocatechol as substrate/hydrogen-donar; assay type: physicochemical
[10] = system: HEK293; test: (§1) Cytotoxicity against HEK293 cells after 48 hrs by MTT assay; assay type: cell-based; conditions: human, hek293, 48 h
[11] = system: HepG2; test: Cytotoxicity against human HepG2 cells after 48 hrs by MTT assay; assay type: functional
[12] = system: MCF7; test: Cytotoxicity against human MCF7 cells after 48 hrs by MTT assay; assay type: functional
[13] = system: SiHa; test: Cytotoxicity against human SiHa cells after 48 hrs by MTT assay; assay type: functional
[14] = as §1; assay type: cell-based; conditions: human, HEK293 cells
[15] = system: HEK293; test: Selectivity index, ratio CC50 for HEK293 cells to CC50 for human MCF7 cells; assay type: functional
[16] = system: HEK293; test: Selectivity index, ratio CC50 for HEK293 cells to CC50 for human HepG2 cells; assay type: functional
[17] = system: HEK293; test: Selectivity index, ratio CC50 for HEK293 cells to CC50 for human SiHa cells; assay type: functional

| Structure (SMILES) | Activity [1] [µM/min] | Activity [2] [µM/min] | Activity [3] [V] | Activity [4] [V] | Activity [5] [µM/min] | Activity [6] [µM/min] | Activity [7] [V] | Activity [8] [V] | Activity [9] [µM/min] | CC50 [10] | CC50 ([11]; HepG2, 48 h) [µM] | CC50 [12] | CC50 [13] | CC50 at 48 h [14] [µM] | CC50 ([12]; MCF7, 48 h) [µM] | Selectivity Index [15] | Selectivity Index [16] | Selectivity Index [17] | CC50 [11] |
| --- | --- | --- | --- | --- | --- | --- | --- | --- | --- | --- | --- | --- | --- | --- | --- | --- | --- | --- | --- |
| O=C1/C(=C/c2ccccn2)NC(=[Se])N1C1CCCCC1 | 138 | 3 | -1.81 | 1.16 | 0 | 0 | -2.2 | 1.23 | 0 |  |  |  |  |  |  |  |  |  |  |
| C=CCN1C(=O)/C(=C/c2ccccn2)N=C1SC |  |  |  |  |  |  |  |  |  | Not Active | 56.7 | inactive | 102 µM |  |  |  |  |  |  |
| O=C1/C(=C/c2ccccn2)N=C([Se]CC[Se]C2=N/C(=C\c3ccccn3)C(=O)N2C2CCCCC2)N1C1CCCCC1 |  |  | -1.86 | 1.46 |  |  | -2.61 | 1.28 |  |  |  |  |  |  |  |  |  |  |  |
| C=CCN1C(=O)CNC1=[Se] |  |  |  |  |  |  |  |  |  |  | 16.4 |  | 12.7 µM | 10.3 | 44.1 |  |  |  |  |
| C=CCN1C(=O)/C(=C/c2ccccn2)N=C1[Se]C | 0 | 0 |  |  | 0 | 0 |  |  | 0 |  | 6.62 |  | 3.66 µM | 12.6 | 7.18 | >2 | >2 | >2 |  |
| C=CCN1C(=O)CNC1=S |  |  |  |  |  |  |  |  |  |  | 40.7 |  | 42.4 µM | 58.2 | 35.2 |  |  |  |  |
| C=CCN1C(=O)/C(=C/c2ccccn2)NC1=S | 0 | 0 |  |  | 0 | 0 |  |  | 0 | Not Active |  | inactive | inactive |  |  |  |  |  | inactive |
| CCOC(=O)CNC(=[Se])NC1CCCCC1 | 82 | 0 |  |  | 0 | 0 |  |  | 1.3 |  |  |  |  |  |  |  |  |  |  |
| O=c1c2ccccc2[se]n1-c1ccccc1 [EBSELEN] | 140 |  |  |  |  |  |  |  |  |  |  |  |  |  |  |  |  |  |  |
| C=CCN1C(=O)/C(=C/c2ccccn2)NC1=[Se] | 79 | 0 | -1.79 | 1.2 | 0 | 0 | -2.15 | 1.21 | 0 |  | 29.8 |  | 23.6 µM | 42.6 | 31.2 | >2 | >2 | >2 |  |

Reference: ChEMBL document CHEMBL3751789, “Synthesis, isomerization and biological activity of novel 2-selenohydantoin derivatives” (Bioorg Med Chem, 2016)
